Measurements reported in publication PMC6272797, “Antitrypanosomal Acetylene Fatty Acid Derivatives from the Seeds of Porcelia macrocarpa (Annonaceae)” (Molecules, 2015).
Read-outs that look alike come from different tables or passages of the source.

Columns and labels:
[1] = system: T. cruzi trypomastigotes (Y strain); experiment: Activity against T. cruzi trypomastigotes (MTT viability assay); type: cell-based, Trypanosoma cruzi; settings: for IC50: Trypanosoma cruzi, free trypomastigotes, read-out: IC50 T. cruzi trypomastigote; for IC50 / antitrypanosomal activity against T. cruzi trypomastigotes (in words): MTT; for antitrypanosomal activity against T. cruzi trypomastigotes (in words): in vitro; for SI (selectivity index): CC50 NCTC cells/IC50 trypomastigotes
Experimental: T. cruzi trypomastigotes (Y strain) were maintained in LLC-MK2 (ATCC CCL 7) cells using RPMI-1640 medium supplemented with 2% FBS at 37 °C and 5% CO2-humidified incubator [34].
Free trypomastigotes obtained from LLC-MK2 cultures were counted in a Neubauer hemocytometer and seeded at 1 × 10^6/well in 96-well microplates. Tested compounds were incubated to the highest concentration of 300 μg/mL for 24 h at 37 °C in a 5% CO2 humidified incubator; using benznidazole as standard drug. The viability of the trypomastigotes was verified by the MTT assay as previously described.
The data obtained represent the mean and standard deviation of duplicate samples from three independent assays. The IC50 and CC50 values were calculated using sigmoid dose-response curves in Graph Pad Prism 5.0 software (GraphPad Software, San Diego, CA, USA), and the 95% confidence intervals are included in parentheses.

[2] = Cytotoxicity against mammalian cells (MTT assay); type: cell-based; settings: mouse, NCTC clone 929 cells
Experimental: The 50% cytotoxic concentration (CC50) was determined in NCTC clone 929 cells. NCTC cells were seeded at 6 × 10^4 cells/well in 96-well microplates at 37 °C in a 5% CO2. […] The viability of the cells was determined by MTT assay at 570 nm. The Selectivity Index (SI) was determined considering the following equation: CC50 NCTC cells/IC50 trypomastigotes. […] The data obtained represent the mean and standard deviation of duplicate samples from three independent assays. The IC50 and CC50 values were calculated using sigmoid dose-response curves in Graph Pad Prism 5.0 software (GraphPad Software, San Diego, CA, USA), and the 95% confidence intervals are included in parentheses.

[3] = 24 h, 24 h, highest concentration 300 µg/mL, CI95% in parentheses
[4] = highest concentration 100 µg/mL, CI95% in parentheses

IC50 [1, 3] [µg/mL]	IC50 ([1]; 24 h, 24 h) [µM]	SMILES	antitrypanosomal activity against T. cruzi trypomastigotes (in words) [1]	CC50 at 48 h [2] [µM]	CC50 at 48 h [2, 4] [µg/mL]	SI (selectivity index) [1]	trypomastigote forms of T. cruzi killed ([1]; at the highest tested concentration (300 µg/mL), 24 h) [%]	effectiveness relative to the standard drug benznidazole ([1]; comparison of IC50 against trypomastigotes)
> 300		CCCC#CC#CCCCCCCCCCCC(=O)OCC(O)COC(=O)CCCCCCC/C=C\CCCCCCCC (stereo not drawn) [Compound 3, α-macrocarpoyl-α'-oleylglycerol]	inactive					
> 300		CCCC#CC#CCCCCCCCCCCC(=O)OCC(COC(=O)CCCCCCCCCCC#CC#CCCC)OC(=O)CCCCCCC/C=C\CCCCCCCC [Compound 2, α,α'-dimacrocarpoyl-β-oleylglycerol]	inactive					
> 300		CCCCCCCCCCCCCCCCCC(=O)O [Compound 1a, octadecanoic acid]						
10.7	38.8	CCCC#CC#CCCCCCCCCCCC(=O)O [Compound 1, 12,14-octadecadiynoic acid]	displayed in vitro activity	160	44.3	4.1	100	approximately ten times more effective
139	534	O=C(Cn1ccnc1[N+](=O)[O-])NCc1ccccc1 [Benznidazole, benznidazole, reference compound]		484	126	0.9		
